Measurements published in ChEMBL document CHEMBL1649153, “Population pharmacokinetics of high-dose, prolonged-infusion cefepime in adult critically ill patients with ventilator-associated pneumonia” (Antimicrob Agents Chemother, 2009).

Legend:
Homo sapiens = assay: Toxicity in critically ill patient with ventilator-associated pneumoniae assessed as adverse effects at […] administered as 3 hr infusion every 8 hrs by HPLC; assay type: organism-based; conditions: in vivo, iv
Serum = assay: Serum creatinine level in critically ill patient with ventilator-associated pneumoniae at […] administered as 3 hr infusion every 8 hrs by HPLC; assay type: ADME, organism-based; conditions: human, in vivo, iv

CO/N=C(\C(=O)N[C@@H]1C(=O)N2C(C(=O)[O-])=C(C[N+]3(C)CCCC3)CS[C@H]12)c1csc(N)n1 [CEFEPIME]
Activity (Homo sapiens): Non-toxic
serum creatinine (Serum): 0.8 mg/dL
